The values that follow come from patent US20240294488A1, “ISOTOPOLOGES, SALTS, CRYSTALLINE FORMS, STEREOISOMERS, OF METHYLONE AND ETHYLONE AND METHODS OF USE THEREOF” (Terran Biosciences Inc., priority 2021, published 2024).

SMILES strings stand for the structures. Structures can show the parent of a compound that is named as a salt.

For orientation: half-life means how long it takes for the measured level to halve. Higher therefore signals slow decline. The term microsomal CLint denotes the rate of metabolic loss divided by the concentration. A lower microsomal CLint goes with greater metabolic stability.

A short description of data set [1]: Metabolic stability in human liver microsomes. The settings on record: pooled liver microsomes, pH 7.4; human liver microsomes 0.5 mg/mL, 1 μM compound, NADPH, 0-45 min. It counts as in vitro ADME. How it is done:
Pooled liver microsomes are purchased from a reputable commercial supplier. Microsomes are stored at […] prior to use. Microsomes (final protein concentration 0.5 mg/mL), 0.1 M phosphate buffer pH 7.4 and test compound (final substrate concentration 1 μM; final DMSO concentration 0.25%) are preincubated at 37° C. prior to the addition of NADPH (final concentration 1 mM) to initiate the reaction. A minus cofactor control incubation is included for each compound tested where 0.1 M phosphate buffer pH 7.4 is added instead of NADPH (minus NADPH). Two control compounds are included with each species. All incubations are performed singularly for each test compound. Each compound is incubated for 0, 5, 15, 30 and 45 min. The control (minus NADPH) is incubated for 45 min only. The reactions are stopped by transferring incubate into acetonitrile at the appropriate time points, in a 1:3 ratio. The termination plates are centrifuged at 3,000 rpm for 20 min at 4° C. to precipitate the protein.
From a plot of ln peak area ratio (compound peak area/internal standard peak area) against time, the gradient of the line is determined. Subsequently, half-life and intrinsic clearance are calculated using the equations below:
where V=Incubation volume (μL)/Microsomal protein (mg)
Relevant control compounds were assessed, ensuring intrinsic clearance values fall within the specified limits (if available).

Another data set concerns Sprague-Dawley rats. Kind of data set: Rat elevated zero maze model of anxiety. The format is in vivo. Conditions: for frequency of stretched attend postures (SAPs) / time spent in the open arms: 30 min pretest, 5-min test; for time spent in the open arms: vs vehicle; for anxiogenic effect: across doses tested (2.5-30 mg/kg ip); for anxiolytic effect: at a sufficient dose. An excerpt:
The rat zero-maze model is a refined alternative to the plus-maze, the most widely used animal model of anxiety, and consists of an elevated annular platform, divided equally into four quadrants. Two opposite quadrants are enclosed by Perspex walls on both the inner and the outer edges of the platform, while the remaining two opposite quadrants are open being enclosed only by a Perspex “lip”. Animals will show a preference for the closed areas, and avoidance of the open sections is assumed to stem from a rodent's natural aversion to open, exposed spaces. The primary index of anxiety, which reflect changes in open arm preference, is the percentage of time spent on the open areas. A reduction in the amount of activity on the open areas is considered to reflect an increase in anxiety. Other, ethologically-based behaviours are also assessed as indices of anxiety. One of the most important is stretched attend postures (SAP) from closed to open quadrants. […] Shepherd, J K; et al., (1994) Behavioural and pharmacological validation of the elevated “zero-maze” as an animal model of anxiety. Psychopharmacol., 116:56-64.
Male Sprague-Dawley 200-250 g (Envigo UK) rats were used. Animals were group-housed (5 per cage; cage size: 40×40×20 cm) in a temperature-controlled environment (22±2° C.), under a 12 h light-dark cycle (lights on: 08:00 hours) for one week prior to testing. Food and water were freely available. Number of animals per group=5. Animals were moved into the experimental room 16-24 hours before testing.
The elevated 0-maze comprises a black Perspex annular platform (105 cm diameter, 10 cm width) elevated to 65 cm above ground level, divided equally into four quadrants. Two opposite quadrants are enclosed by clear red Perspex walls (27 cm high) on both the inner and outer edges of the platform, while the remaining two opposite quadrants are surrounded only by a Perspex “lip” (1 cm high) which serves as a tactile guide to animals on these open areas.
Subjects were weighed and tail marked before being injected. After a specified pretreatment time, subjects were placed in a closed quadrant and a 5-min test period were recorded on videotape for subsequent analysis. The maze were cleaned with 5% methanol/water solution and dried thoroughly between test sessions. Behavioural measures comprise percentage time spent on the open areas (% TO) and frequency of stretched attend postures (SAP) from closed to open quadrants. Since the control groups were all treated identically with the same vehicle these were combined to increase power. The Chlordiazepoxide groups were also treated identically with the same dose so these were also combined to increase power. Animals are scored as being in the open area when all four paws were in an open quadrant and in the closed area only when all four paws have passed over the open-closed divide. All testing were carried out between 9.00 and 16.00 hours.
Drug Versus Vehicle Treatments For each study, a 1-way ANOVA was conducted across vehicle, CDP, and drug treatment groups. Each group was compared to the vehicle group and a p-value for treatment determined by Fishers Least Significant Difference (LSD) test. This analysis was performed in GraphPad Prism (Version 9).Formulations: […]
Intraperitoneal (IP): Racemic methylone HCl was formulated in Vehicle 1 (Saline) for injection to concentrations of 1, 3 and 6 mg/mL to provide doses of 5, 15 and 30 mg/kg when administered ip in 5 mL/kg dosing volumes.
Intraperitoneal (IP): S-methylone HCl was formulated in Vehicle 1 (Saline) for injection to concentrations of 0.5, 1, 1.5, 3 and 6 mg/mL to provide doses of 2.5, 5, 7.5, 15 and 30 mg/kg when administered ip in 5 mL/kg dosing volumes.
Intraperitoneal (IP): R-methylone HCl was formulated in Vehicle 1 (Saline) for injection to concentrations of 1, 3 and 6 mg/mL to provide doses of 5, 15 and 30 mg/kg when administered ip in 5 mL/kg dosing volumes. […]

[2] abbreviates: 30 mg/kg ip vs chlordiazepoxide 6 mg/kg ip.

As for `CN[C@@H](C)C(=O)c1ccc2c(c1)OCO2` [(S)-Methylone Hydrochloride, (S)-1-(Benzo[d][1,3]dioxol-5-yl)-2-(methylamino)propan-1-one Hydrochloride], in data set [1], the half-life at 1 μM turned out to be 2.28 h. In addition, the microsomal CLint at 1 μM in data set [1] is 10.1 µL/min/mg. Also, the “frequency of stretched attend postures (SAPs)” value (from here on “frequency … (SAPs)”) with Sprague-Dawley rats (2.5 mg/kg ip) is on record as “dose dependent increase in SAPs”; in the data set with Sprague-Dawley rats (5 mg/kg ip) it was “dose dependent increase in SAPs”; with Sprague-Dawley rats (7.5 mg/kg ip) it was “dose dependent decrease in SAPS”; in the data set on Sprague-Dawley rats (15 mg/kg ip) it was “dose dependent decrease in SAPS”; in the data set on Sprague-Dawley rats (30 mg/kg ip), “dose dependent decrease in SAPS”. The “time spent in the open arms” value with Sprague-Dawley rats (5 mg/kg ip) is “the time spent in the open arms decreased as the dose increased”; in the data set with Sprague-Dawley rats (7.5 mg/kg ip), “the time spent in the open arms decreased as the dose increased”; in the data set on Sprague-Dawley rats (15 mg/kg ip), “the time spent in the open arms decreased as the dose increased”; in the data set with Sprague-Dawley rats (30 mg/kg ip) it was “the time in the open arms increased”. Moreover, the “decrease in SAPs compared with chlordiazepoxide” value (“decrease in SAPs” for short) with Sprague-Dawley rats (setting [2]) is given as “even more effective than chlordiazepoxide”. Also, in the data set with Sprague-Dawley rats (setting [2]), the “time spent in the open arms compared with chlordiazepoxide” value is recorded as “as effective as chlordiazepoxide”. The anxiogenic effect entry with Sprague-Dawley rats was “show anxiogenic effects at lower doses”. Moreover, the anxiolytic effect entry in the data set with Sprague-Dawley rats is recorded as “effective anxiolytics”.
In data set [1], `CN[C@H](C)C(=O)c1ccc2c(c1)OCO2` [(R)-Methylone Hydrochloride, (R)-1-(Benzo[d][1,3]dioxol-5-yl)-2-(methylamino)propan-1-one Hydrochloride] came in with a half-life at 1 μM of 3.38 h and a microsomal CLint at 1 μM of 6.82 µL/min/mg. In the data set on Sprague-Dawley rats (setting [2]), the “decrease in SAPs” value is “to the same level as chlordiazepoxide” and the “time spent in the open arms compared with chlordiazepoxide” value was “as effective as chlordiazepoxide”. In the data set with Sprague-Dawley rats (30 mg/kg ip), the “frequency … (SAPs)” value was “significantly decreasing SAPs”. Moreover, in the data set with Sprague-Dawley rats (5, 15 and 30 mg/kg ip), the “frequency of SAPs, dose dependence” value is “dose dependent decrease in SAPs” and the “time spent in the open arms, dose dependence” value is “dose dependent increase in time spent in the open arms”. For the same compound, in the data set with Sprague-Dawley rats, the anxiogenic effect entry is reported as “did not show any anxiogenic effect at any dose” and the anxiolytic effect entry is “effective anxiolytics”.
In data set [1], `CNC(C)C(=O)c1ccc2c(c1)OCO2` (racemic) [(rac)-Methylone Hydrochloride, 3,4-methylenedioxy-N-methylcathinone hydrochloride] had a half-life at 1 μM of 2.62 h and a microsomal CLint at 1 μM of 8.84 µL/min/mg. In addition, the “time spent in the open arms” value with Sprague-Dawley rats (5 mg/kg ip) is reported as “a decrease in time spent in the open arms vs placebo”. The “decrease in SAPs” value in the data set on Sprague-Dawley rats (15 mg/kg ip vs chlordiazepoxide 6 mg/kg ip) is recorded as “not as effective as chlordiazepoxide”. Besides, in the data set on Sprague-Dawley rats (15 mg/kg ip), the “frequency … (SAPs)” value was “dose dependent decrease in SAPs” and the “time spent in the open arms” value is recorded as “no difference from placebo”. For the same compound, in the data set on Sprague-Dawley rats (30 mg/kg ip), the “frequency … (SAPs)” value is given as “a decrease in SAPs” and the “time spent in the open arms” value was “a significant decrease in time spent in the open arms”. Besides, in the data set with Sprague-Dawley rats, the anxiogenic effect entry was “show anxiogenic effects at lower doses” and the anxiolytic effect entry is “effective anxiolytics”.
